Assay results published in ChEMBL document CHEMBL1641549, “Inhibitory effects of hybrid liposomes on the growth of synoviocyte causing rheumatoid arthritis” (2011).
The source made the active and inactive calls. No cut-off for these calls is given here.

Experiments:
Homo sapiens [1] = organism: Homo sapiens; test: Growth inhibition of HFLS isolated from rheumatoid arthritis patients after 48 hrs by WST-1 assay; format: functional
[2] = Induction of apoptosis in HFLS isolated from rheumatoid arthritis patients after 24 hrs using propidium iodide staining by flow cytometry relative to DNA content; format: functional, Homo sapiens
Homo sapiens [3] = organism: Homo sapiens; test: Induction of apoptosis in HFLS isolated from rheumatoid arthritis patients by TUNEL assay; format: functional
Mus musculus = test: Antiarthritic activity in SKG mouse expressing human rheumatoid arthritis invasion of inflammatory cells assessed as reduction of laminarin-induced joint swelling at 135 mg/kg, iv administered 14 days after laminarin challenge every 2 days for 36 weeks; format: functional, organism-based; set-up: dose 135 mg/kg

| Structure (SMILES) | growth inhibition (GI) (Homo sapiens [1]) | Activity [2] [%] | Activity (Homo sapiens [3]) | Activity (Mus musculus) |
| --- | --- | --- | --- | --- |
| CCCCCCCCCCCCOCCOCCOCCOCCOCCOCCOCCOCCOCCOCCOCCOCCOCCOCCOCCOCCOCCOCCOCCOCCOCCOCCOCCOCCOCCO | Active | 21.2 | Active |  |
| CCCCCCCCCCCCOCCOCCOCCOCCOCCOCCOCCOCCOCCOCCOCCOCCOCCOCCOCCOCCOCCOCCOCCOCCOCCOCCOCCO | Active | 24.8 | Active | Active |
| CCCCCCCCCCCCOCCOCCOCCOCCOCCOCCOCCOCCOCCOCCOCCOCCOCCOCCOCCOCCOCCOCCOCCOCCOCCO | Active | 20.9 | Active |  |
